Positions of bridges follow the written chain, without caps; N, C: chain ends. Non-standard residues stand in square brackets, D forms with d. Residues, ends and D or L forms follow the SMILES beside them.
Molecular target: T1, Platelet rich plasma, PRP (Canis lupus familiaris, UniProt A0A8I3N5G5+A0A8I3PMU9)
T1 sequence (A0A8I3N5G5 1-1047): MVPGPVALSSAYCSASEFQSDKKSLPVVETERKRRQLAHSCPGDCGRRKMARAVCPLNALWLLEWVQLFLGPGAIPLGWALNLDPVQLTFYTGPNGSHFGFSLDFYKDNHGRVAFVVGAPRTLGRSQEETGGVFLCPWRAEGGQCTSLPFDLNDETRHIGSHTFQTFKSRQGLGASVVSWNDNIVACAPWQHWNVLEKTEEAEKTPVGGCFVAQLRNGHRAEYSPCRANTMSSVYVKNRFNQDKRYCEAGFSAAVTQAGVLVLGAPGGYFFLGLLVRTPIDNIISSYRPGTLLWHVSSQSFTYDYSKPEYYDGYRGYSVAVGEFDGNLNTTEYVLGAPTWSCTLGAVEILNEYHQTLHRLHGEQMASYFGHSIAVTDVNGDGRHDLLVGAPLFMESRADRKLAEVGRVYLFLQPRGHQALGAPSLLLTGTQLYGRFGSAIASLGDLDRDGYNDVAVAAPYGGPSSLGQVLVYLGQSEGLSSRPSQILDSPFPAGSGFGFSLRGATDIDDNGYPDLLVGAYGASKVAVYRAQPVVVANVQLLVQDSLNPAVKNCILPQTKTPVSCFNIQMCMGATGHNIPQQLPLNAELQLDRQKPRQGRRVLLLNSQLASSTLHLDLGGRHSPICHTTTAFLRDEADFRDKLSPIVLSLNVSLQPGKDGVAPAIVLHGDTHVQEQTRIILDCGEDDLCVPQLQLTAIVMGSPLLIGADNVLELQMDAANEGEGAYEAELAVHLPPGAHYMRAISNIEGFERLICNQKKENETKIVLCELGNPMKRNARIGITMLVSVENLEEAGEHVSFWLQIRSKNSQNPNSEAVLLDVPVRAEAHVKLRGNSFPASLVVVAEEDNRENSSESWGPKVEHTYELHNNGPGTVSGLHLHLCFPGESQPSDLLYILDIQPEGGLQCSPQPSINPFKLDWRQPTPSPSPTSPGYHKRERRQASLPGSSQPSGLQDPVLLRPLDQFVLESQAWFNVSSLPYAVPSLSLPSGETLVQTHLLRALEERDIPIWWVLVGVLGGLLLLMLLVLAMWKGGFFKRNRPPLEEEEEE
T1 sequence (A0A8I3PMU9 1-919): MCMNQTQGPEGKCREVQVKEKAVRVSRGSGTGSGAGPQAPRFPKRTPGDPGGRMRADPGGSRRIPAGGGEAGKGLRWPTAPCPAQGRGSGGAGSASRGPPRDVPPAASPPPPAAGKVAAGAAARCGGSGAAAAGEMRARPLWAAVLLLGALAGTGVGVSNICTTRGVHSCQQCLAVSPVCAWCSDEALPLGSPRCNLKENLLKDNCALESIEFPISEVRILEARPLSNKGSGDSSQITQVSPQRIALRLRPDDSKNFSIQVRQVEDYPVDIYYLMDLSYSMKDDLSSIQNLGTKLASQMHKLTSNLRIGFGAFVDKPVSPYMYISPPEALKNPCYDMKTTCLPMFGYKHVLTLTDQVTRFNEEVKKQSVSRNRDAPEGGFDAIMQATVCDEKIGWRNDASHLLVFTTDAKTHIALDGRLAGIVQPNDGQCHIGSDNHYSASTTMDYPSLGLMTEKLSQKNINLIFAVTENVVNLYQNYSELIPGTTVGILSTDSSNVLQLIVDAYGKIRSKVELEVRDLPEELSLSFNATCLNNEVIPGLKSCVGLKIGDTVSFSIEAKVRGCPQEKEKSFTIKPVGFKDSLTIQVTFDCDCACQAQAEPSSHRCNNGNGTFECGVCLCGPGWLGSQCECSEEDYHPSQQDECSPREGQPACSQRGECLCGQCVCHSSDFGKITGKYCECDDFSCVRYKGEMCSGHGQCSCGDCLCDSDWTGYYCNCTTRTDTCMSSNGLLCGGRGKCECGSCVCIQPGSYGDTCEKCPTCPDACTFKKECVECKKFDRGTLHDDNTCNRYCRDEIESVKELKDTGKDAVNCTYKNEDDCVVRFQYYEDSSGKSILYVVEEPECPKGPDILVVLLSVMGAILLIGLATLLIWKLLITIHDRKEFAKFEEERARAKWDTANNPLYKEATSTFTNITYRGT
Test: Inhibition of platelet aggregation, PRP/ADP
Format: cell-based
Conditions: dog platelet rich plasma, 2 μM ADP, peptide added 3 min. prior to agonist; read-out: Antiaggregatory Activity IC50, μM PRP/ADP
Procedure: Blood was collected (citrated to prevent coagulation) from, naive, adult mongrel dogs. Platelet rich plasma, PRP, was prepared by centrifugation at 150×g for 10 min. at room temperature. Washed platelets were prepared by centrifuging PRP at 800×g for 10 min. The cell pellet thus obtained was washed twice in Tyrode's buffer (pH 6.5) without Ca^2+ and resuspended in Tyrode's buffer (pH 7.4) containing 1.8 mM Ca^2+ at […]. Peptides were added 3 min. prior to the agonist in all assays of platelet aggregation. Final agonist concentrations were 0.1 unit/ml thrombin and 2 μM ADP (Sigma). Aggregation was monitored in a Chrono-Log Lumi-Aggregometer. Light transmittance 5 min. after addition of the agonist was used to calculate percent aggregation according to the formula % aggregation=[(90-CR).div.(90-10)]×100, where CR is the chart reading, 90 is the baseline, and 10 is the PRP blank reading. IC50 's were determined by plotting [% inhibition of aggregation] vs. [concentration of peptide]. Peptides were assayed at 200 μM and diluted sequentially by a factor of 2 to establish a suitable dose response curve.

**Q.** With CC(=O)N[C@H]1CSSC[C@@H](C(N)=O)NC(=O)[C@H](CO)NC(=O)[C@H](CC(=O)O)NC(=O)CNC(=O)[C@H](CCCNC(=N)N)NC1=O [Example 3, N^α -Ac-Cyclo(S,S) Cys-Arg-Gly-Asp-Ser-Cys-NH2] (HELM PEPTIDE1{[ac].C.R.G.D.S.C.[am]}$PEPTIDE1,PEPTIDE1,2:R3-7:R3$$$V2.0) as the compound, how does the IC50 read?
**A.** 32.7 µM

**Q.** With CC(=O)N[C@H]1CSSC(C)(C)[C@@H](C(N)=O)NC(=O)[C@H](CO)NC(=O)[C@H](CC(=O)O)NC(=O)CNC(=O)[C@H](CCCNC(=N)N)N(C)C1=O [Example 5, N^α -Ac-Cyclo(S,S)Cys-MeArg-Gly-Asp-Ser-Pen-NH2] (HELM PEPTIDE1{[ac].C.[meR].G.D.S.[Pen].[am]}$PEPTIDE1,PEPTIDE1,2:R3-7:R3$$$V2.0) as the compound, how does the IC50 read?
**A.** 1.3 µM

**Q.** How did the IC50 turn out when CC(=O)N[C@H]1CSSC(C)(C)[C@@H](C(N)=O)NC(=O)[C@H](CC(=O)O)NC(=O)CNC(=O)[C@H](CCCNC(=N)N)NC1=O [Example 10, N^α -Ac-Cyclo(S,S)Cys-Arg-Gly-Asp-Pen-NH2] (HELM PEPTIDE1{[ac].C.R.G.D.[Pen].[am]}$PEPTIDE1,PEPTIDE1,2:R3-6:R3$$$V2.0) was run?
**A.** 4.12 µM

**Q.** Which IC50 does the source give for CC(=O)N[C@H]1CSSC(C)(C)[C@H](C(N)=O)NC(=O)[C@H](CC(=O)O)NC(=O)CNC(=O)[C@H](CCCNC(=N)N)NC1=O [Example 11, N^α -Ac-Cyclo(S,S)Cys-Arg-Gly-Asp-D-Pen-NH2] (HELM PEPTIDE1{[ac].C.R.G.D.[CC(C)(S[*:3])[C@@H](N[*:1])C(=O)[*:2]].[am]}$PEPTIDE1,PEPTIDE1,2:R3-6:R3$$$V2.0) here?
**A.** 20.3 µM

**Q.** CC(=O)N[C@H]1CSSC(C)(C)[C@@H](C(N)=O)NC(=O)[C@H](CC(=O)O)NC(=O)CNC(=O)[C@H](CCCCN)NC1=O [Example 12, N^α -Ac-Cyclo(S,S)Cys-Lys-Gly-Asp-Pen-NH2] (HELM PEPTIDE1{[ac].C.K.G.D.[Pen].[am]}$PEPTIDE1,PEPTIDE1,2:R3-6:R3$$$V2.0) was tested. Which IC50 did it give?
**A.** 55.3 µM

**Q.** CC(=O)N[C@H]1CSSC(C)(C)[C@@H](C(N)=O)NC(=O)[C@H](CC(=O)O)NC(=O)CNC(=O)[C@H](CCCCNC(=N)N)NC1=O [Example 13, N^α -Ac-Cyclo(S,S)Cys-HArg-Gly-Asp-Pen-NH2] (HELM PEPTIDE1{[ac].C.[N=C(N)NCCCC[C@H](N[*:1])C(=O)[*:2]].G.D.[Pen].[am]}$PEPTIDE1,PEPTIDE1,2:R3-6:R3$$$V2.0) was tested. Which IC50 did it give?
**A.** 3.85 µM

**Q.** CC(=O)N[C@H]1CSSC(C)(C)[C@@H](C(N)=O)NC(=O)[C@H](CC(=O)O)NC(=O)CNC(=O)[C@H](CCCNC(=N)N)N(C)C1=O [Example 14, N^α -Ac-Cyclo(S,S)Cys-MeArg-Gly-Asp-Pen-NH2] (HELM PEPTIDE1{[ac].C.[meR].G.D.[Pen].[am]}$PEPTIDE1,PEPTIDE1,2:R3-6:R3$$$V2.0) was tested. Which IC50 did it give?
**A.** 0.26 µM

**Q.** How did the IC50 turn out when CCNC(=O)[C@H](CO)NC(=O)[C@H](CC(=O)O)NC(=O)CNC(=O)[C@H](CCCN=C(N)N)NC(C)=O [Example 15, N^α -Ac-Arg-Gly-Asp-Ser-NHEt] (HELM PEPTIDE1{[ac].R.G.D.S.[CCN[*:1]]}$$$$V2.0) was run?
**A.** > 200 µM

**Q.** With CCNC(=O)[C@H]1NC(=O)[C@H](CC(=O)O)NC(=O)CNC(=O)[C@H](CCCNC(=N)N)NC(=O)[C@@H](NC(C)=O)CSSC1(C)C [Example 16, N^α -Ac-Cyclo(S,S)Cys-Arg-Gly-Asp-Pen-NHEt] (HELM PEPTIDE1{[ac].C.R.G.D.[Pen].[CCN[*:1]]}$PEPTIDE1,PEPTIDE1,2:R3-6:R3$$$V2.0) as the compound, how does the IC50 read?
**A.** 9.5 µM

**Q.** How did the IC50 turn out when CC(=O)N[C@H]1CSSC(C)(C)[C@@H](C(N)=O)NC(=O)[C@H](CC(=O)O)NC(=O)CNC(=O)[C@@H](CCCNC(=N)N)NC1=O [Example 17, N^α -Ac-Cyclo(S,S)Cys-D-Arg-Gly-Asp-Pen-NH2] (HELM PEPTIDE1{[ac].C.[dR].G.D.[Pen].[am]}$PEPTIDE1,PEPTIDE1,2:R3-6:R3$$$V2.0) was run?
**A.** 4.1 µM

**Q.** With CC(=O)N[C@H]1CSSC[C@@H](C(N)=O)NC(=O)[C@H](Cc2ccc(O)cc2)NC(=O)[C@H](CC(=O)O)NC(=O)CNC(=O)[C@H](CCCNC(=N)N)N(C)C1=O [Example 18, N^α -Ac-Cyclo(S,S)Cys-MeArg-Gly-Asp-Tyr-Cys-NH2] (HELM PEPTIDE1{[ac].C.[meR].G.D.Y.C.[am]}$PEPTIDE1,PEPTIDE1,2:R3-7:R3$$$V2.0) as the compound, how does the IC50 read?
**A.** 1.49 µM

**Q.** For CCN=C(NCC)NCCC[C@@H]1NC(=O)[C@@H](NC(C)=O)CSSC(C)(C)[C@@H](C(N)=O)NC(=O)[C@H](CC(=O)O)NC(=O)CNC1=O [Example 24, N^α -Ac-Cyclo(S,S)Cys-(Et2)Arg-Gly-Asp-Pen-NH2] (HELM PEPTIDE1{[ac].C.[CCN=C(NCC)NCCC[C@H](N[*:1])C(=O)[*:2]].G.D.[Pen].[am]}$PEPTIDE1,PEPTIDE1,2:R3-6:R3$$$V2.0), which IC50 is on record?
**A.** 81.7 µM

**Q.** For CC(=O)N[C@@H](CCCN=C(N)N)C(=O)NCC(=O)N[C@@H](CC(=O)O)C(=O)N[C@H](C(N)=O)C(C)C [Example 31, N^α -Ac-Arg-Gly-Asp-Val-NH2] (Ac-RGDV-NH2), which IC50 is on record?
**A.** 55.5 µM

**Q.** Which IC50 does the source give for CC(=O)N[C@@H](CCCN=C(N)N)C(=O)NCC(=O)N[C@@H](CC(=O)O)C(=O)NCCc1ccccc1 [Example 34, N^α -Ac-Arg-Gly-Asp-NH-CH -CH2 -C6 H5] here?
**A.** 75.9 µM

**Q.** With CC(=O)N[C@@H](CCCCNC(=N)N)C(=O)NCC(=O)N[C@@H](CC(=O)O)C(=O)N[C@@H](CO)C(N)=O [Example 36, Ac-HArg-Gly-Asp-Ser-NH2] (HELM PEPTIDE1{[ac].[N=C(N)NCCCC[C@H](N[*:1])C(=O)[*:2]].G.D.S.[am]}$$$$V2.0) as the compound, how does the IC50 read?
**A.** 68.2 µM

**Q.** Which IC50 does the source give for CN[C@@H](CCCNC(=N)N)C(=O)NCC(=O)N[C@@H](CC(=O)O)C(=O)N[C@@H](CO)C(N)=O [Example 37, N^α -MeArg-Gly-Asp-Ser-NH2] (HELM PEPTIDE1{[meR].G.D.S.[am]}$$$$V2.0) here?
**A.** 66.3 µM

**Q.** CN(C=O)[C@@H](CCCNC(=N)N)C(=O)NCC(=O)N[C@@H](CC(=O)O)C(=O)N[C@@H](CO)C(N)=O [Example 38, N^α -Formyl-MeArg-Gly-Asp-Ser-NH2] (HELM PEPTIDE1{[O=C[*:2]].[meR].G.D.S.[am]}$$$$V2.0) was tested. Which IC50 did it give?
**A.** 6.9 µM

**Q.** For “Ac-RRGDF-NH2 [Example 33, N^α -Ac-Arg-Arg-Gly-Asp-Phe-NH2]”, which IC50 is on record?
**A.** 113 µM

**Q.** For “Gly-MeArg-Gly-Asp-Ser-NH2 (RGDS; N-terminal Gly-Me; C-terminal amide; printed: Arg-Gly-Asp-Ser-) [Example 39]”, which IC50 is on record?
**A.** 12 µM

**Q.** With “N^α -Ac-Cyclo(S,S)Cys-MeArg-Gly-Asp-Cys-NH2 (Ac-C[MeArg]GDC-NH2; disulfide N-5) [Example 8]” as the compound, how does the IC50 read?
**A.** 0.91 µM

From patent publication US5849690A, “Anti-aggregatory peptides” (SmithKline Beecham Corporation, priority 1992, dated 1998)
